{"source": "patent US8691801B2", "about": "“Use of manzamine compounds in anti-cancer therapeutic regimens” (Florida Atlantic University Board of Trustees, priority 2006, dated 2014)", "key": {"AsPC-1 cells [1]": {"tested_on": "AsPC-1 cells", "test": "Cell viability assay (MTT)", "format": "cell-based", "conditions": "pancreatic cancer cells", "procedure": "Cell viability assays. A 3-[4,5-Dimethyl-2-thiazolyl]-2,5-diphenyl-2H-tetrazolium bromide (MTT) based assay was used to determine cell viability. […] Cells were allowed to adhere for 24 hours. […] Treatment consisted of 5 μM or 50 μM of Manzamine A, media alone, media with methanol, or 20 μg/ml U0126. […] After this incubation, 75 μl 5 mg/ml MTT were added to each well. […] The plates were shaken for 15 minutes. […] The resulting absorbencies were plotted using Microsoft Excel."}, "AsPC-1 cells [2]": {"tested_on": "AsPC-1 cells", "test": "Morphological changes (cell dissociation) induced in AsPC-1 cells", "format": "cell-based", "procedure": "Cell Culture Conditions for the AsPC-1 pancreatic adenocarcinoma cell line. AsPC-1, a pancreatic adenocarcinoma cell line, was obtained from ATCC, grown, aliquotted and frozen stocks were maintained in liquid nitrogen. Aliquots of the stock cells were thawed and grown in RPMI-1640 supplemented with 10% Fetal Bovine Serum, 0.11 mg/ml Sodium Pyruvate, 4.5 g/L D-glucose, 18 mM HEPES Buffer, 100 U/ml penicillin G sodium, 100 μg/ml streptomycin sulfate, 0.25 μg/ml amphotericin B, 2 mM L-glutamine and 50 μg/ml gentamicin (Complete RPMI). Cells were maintained in a humidified incubator at 37° C. and 5% CO2.\nAn observation was made that inhibiting the constitutive activation of MEK abrogates cell dissociation (Tan, X. et al., 2004 “Involvement of the mitogen-activated protein kinase kinase 2 in the induction of cell dissociation in pancreatic cancer” Int J Oncol 24(1):65-73), a precursor step in metastasis."}, "AsPC-1 cells [3]": {"tested_on": "AsPC-1 cells", "test": "TRAIL induced apoptosis (MTT readout)", "conditions": "10 μM manzamine A, 48 hours, without TRAIL", "protocol": "(§1) TRAIL induced apoptosis. 12,000 AsPC-1 cells were plated on a 96-well tissue culture plate at a volume of 200 μl/well, allowing for twelve replicate wells per treatment. Cells were allowed to adhere for 24 hours. At the end of this incubation, 100 μl of medium were removed from each test well and 100 μl of medium containing treatment were added. Treatment consisted of media alone, media with methanol, 10 μM Manzamine A or 20 μg/m1 U0126. The cells were then incubated for 48 hours at 37° C. and 5% CO2. After this incubation, half of the wells of each treatment were incubated with 100 ng/ml Super Killer TRAIL (Alexis, San Diego, Calif.) for 18 hours at 37° C. and 5% CO2. At the end of this incubation, 75 μl of a 5 mg/ml MTT solution were added to each well. The cells were then incubated for 3 hours at 37° C. The plates were centrifuged for 10 minutes at 800 rpm. The supernatant was removed and 200 μl acidified isopropyl alcohol (1:500 solution of hydrochloric acid to isopropanol) were added to each well. The plates were shaken for 15 minutes. The absorbencies of these solutions were measured at 570 nm with a plate reader (NOVOstar, BMG Labtech Inc., Durham, N.C.). The resulting absorbencies were plotted using Microsoft Excel. […]"}, "AsPC-1 cells [4]": {"tested_on": "AsPC-1 cells", "format": "cell-based", "description": "In Vitro Cell Invasion Assay. The invasiveness of AsPC-1 cells alone, treated with our test compounds or treated with U0126 as a positive control will be evaluated in 24-well transwell chambers, as described by Fu et al. “Effects of raf kinase inhibitor protein expression on suppression of prostate cancer metastasis”. […] Briefly, the upper and lower culture compartments of each well are separated by polycarbonate membranes (8-μm pore size). To determine baseline migration, 2.5×10^4 cells in 0.5 mL of complete medium containing 5% FBS are placed into the upper compartment of uncoated wells (BD Discovery Labware, San Diego, Calif.), and 0.75 mL of complete medium containing 10% FBS are placed into the lower compartment. In parallel, to assess the ability of the same cells to penetrate a collagen matrix, the experiment is repeated using upper compartments coated with 100 μg/cm^2 of collagen matrix (BD Discovery Labware, San Diego, Calif.). The transwell chambers are incubated for 24 hours at 37 ° C. in 95% air and 5% CO2. Cell penetration through the membrane is detected by staining the cells on the porous membrane with a Diff-Quik stain kit' observing under the microscopic and capturing images with a digital camera."}, "AsPC-1 cells [5]": {"tested_on": "AsPC-1 cells", "protocol": "as §1"}}, "note": "Like-named read-outs stand apart in the source and are kept apart here.", "data": [{"smiles": "O[C@]12C=C(c3nccc4c3[nH]c3ccccc34)[C@@H]3CCN(CCCC/C=C\\CC1)C[C@@]31CC3/C=C\\CCCCN3[C@H]12", "note": "(some centres unmarked) [Manzamine A, manzamine A]", "values": [{"measurement": "cytotoxicity at small doses", "setting": "AsPC-1 cells [1]", "result": "little cytotoxicity"}, {"measurement": "abrogation of cell dissociation", "setting": "AsPC-1 cells [2]; AsPC-1 cells treated 48 hours with 1.25, 2.5, 5, 10 μM Manzamine A, microscopy", "result": "caused abrogation of cell dissociation similar to that caused by pMEK inhibitors"}, {"measurement": "abrogation of cell dissociation, dose dependence", "setting": "AsPC-1 cells [2]; AsPC-1 cells, 48 hours, 5 and 10 μM dose compared with 1.25 and 2.5 μM", "result": "stronger at the 5 and 10 μM dose"}, {"measurement": "dose needed for similar effects relative to U0126", "setting": "AsPC-1 cells [2]; effects on cell dissociation, migration and TRAIL resistance, manzamine A vs U0126", "result": "a fifth of the dose needed for U0126"}, {"measurement": "cytotoxicity of treatment alone", "setting": "AsPC-1 cells [3]", "result": "induced some cytotoxicity"}, {"measurement": "prevention of cell migration", "setting": "AsPC-1 cells [4]; AsPC-1 cells treated 48 hours, 5 and 10 μM Manzamine A, transwell, collagen matrix", "result": "prevented cell migration similar to that caused by the pMEK inhibitor U0126"}]}, {"smiles": "N#CC(=C(/N)Sc1ccccc1N)/C(C#N)=C(\\N)Sc1ccccc1N", "note": "[U0126, reference compound]", "values": [{"measurement": "cytotoxicity of treatment alone", "setting": "AsPC-1 cells [5]", "result": "induced some cytotoxicity"}, {"measurement": "prevention of cell migration", "setting": "AsPC-1 cells [4]", "result": "prevented cell migration"}]}]}
